Source: article PMC10060287 (Pharmacological Reports, 2023)
“Also recorded” adds a separate entry of the source. Ends that are not written are not given here.

Legend:
µ-opioid receptor (µOR) [1] = target: T1, µ-opioid receptor (µOR) (Rattus norvegicus, UniProt P33535); type: binding, Wistar rat (brain membranes)
µ-opioid receptor (µOR) [2] = target: T1, µ-opioid receptor (µOR); experiment: Saturation binding of [^3H]DAMGO with varying G-peptide concentrations; type: Wistar rat (brain membranes)

T1 sequence (P33535 whole entry): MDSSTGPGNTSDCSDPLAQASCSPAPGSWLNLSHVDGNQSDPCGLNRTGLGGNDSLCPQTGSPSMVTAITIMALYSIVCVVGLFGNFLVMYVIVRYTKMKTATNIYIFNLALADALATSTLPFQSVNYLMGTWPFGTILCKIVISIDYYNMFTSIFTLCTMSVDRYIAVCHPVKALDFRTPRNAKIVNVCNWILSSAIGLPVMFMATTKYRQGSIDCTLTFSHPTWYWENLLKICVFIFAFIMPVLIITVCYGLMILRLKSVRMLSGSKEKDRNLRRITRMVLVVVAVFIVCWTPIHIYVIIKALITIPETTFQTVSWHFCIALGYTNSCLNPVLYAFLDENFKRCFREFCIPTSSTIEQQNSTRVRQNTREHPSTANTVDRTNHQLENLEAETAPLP

IIKNNLKDCGLF-NH2 [G-peptide]
G-peptide concentration needed for characteristic shift in the binding curve of morphine (µ-opioid receptor (µOR) [1]): ≥ 100 µM | affinity of the peptide (µ-opioid receptor (µOR) [1]): micromolar level; also recorded: micromolar range | allosteric modulation of µOR (µ-opioid receptor (µOR) [1]): binds the µ-opioid receptor and acts as an allosteric modulator | dose dependence of G-peptide effect on morphine binding (µ-opioid receptor (µOR) [1]): increases µOR affinity for its agonist morphine in a dose-dependent way | orthosteric binding of the G-peptide (µ-opioid receptor (µOR) [1]): no significant orthosteric coupling to µOR; also recorded: inactive through the orthosteric binding site of µOR; also recorded: did not interact directly with the orthosteric binding site | affinity increase caused by the G-peptide (µ-opioid receptor (µOR) [2]; saturation experiments for [H^3]DAMGO): dose dependency of the affinity increase | lowest G-peptide concentration affecting the binding (µ-opioid receptor (µOR) [2]; saturation experiments with radio-ligand): 10 µM | Bmax of DAMGO upon adding G-peptide (µ-opioid receptor (µOR) [2]; two sets of experiments, G-peptide 0.01 to 25 µM and 0.01 to 200 µM): concentration-dependent decrease in the Bmax value of DAMGO | equilibrium dissociation constant Kd and Bmax of DAMGO upon adding G-peptide (µ-opioid receptor (µOR) [2]; varying concentrations of the G-peptide): change in both the equilibrium dissociation constant Kd and Bmax
